Laboratory results as given in ChEMBL document CHEMBL5053538, “Precursor-Directed Biosynthesis of Talaroenamine Derivatives Using a Yellow River Wetland-Derived Penicillium malacosphaerulum” (2021).
In brackets after ≈: the same amount, converted by molar mass.

Key:
Format in all cases: functional
Mycolicibacterium phlei = test: Antimicrobial activity against Mycobacterium phlei assessed as inhibition of bacterial growth incubated for 24 hrs by agar dilution method
Acinetobacter baumannii = test: Antimicrobial activity against Acinetobacter baumannii assessed as inhibition of bacterial growth incubated for 24 hrs by agar dilution method
Edwardsiella tarda = test: Antimicrobial activity against Edwardsiella tarda assessed as inhibition of bacterial growth incubated for 24 hrs by agar dilution method
Proteus sp. = test: Antimicrobial activity against Proteus sp. assessed as inhibition of bacterial growth incubated for 24 hrs by agar dilution method; conditions: Proteus sp. (in: enterobacteria)
Escherichia coli = test: Antimicrobial activity against Escherichia coli assessed as inhibition of bacterial growth incubated for 24 hrs by agar dilution method
Pseudomonas = test: Antimicrobial activity against Pseudomonas assessed as inhibition of bacterial growth incubated for 24 hrs by agar dilution method
Bacillus subtilis = test: Antimicrobial activity against Bacillus subtilis assessed as inhibition of bacterial growth incubated for 24 hrs by agar dilution method
Bacillus cereus = test: Antimicrobial activity against Bacillus cereus assessed as inhibition of bacterial growth incubated for 24 hrs by agar dilution method

Row | SMILES | MIC (Mycolicibacterium phlei) | MIC (Acinetobacter baumannii) | MIC (Edwardsiella tarda) | MIC (Proteus sp.) | MIC (Escherichia coli) | MIC (Pseudomonas) | MIC (Bacillus subtilis) | MIC (Bacillus cereus)
1 | CC1=CC(=O)[C@@](C)(O)C(=O)/C1=C\Nc1ccc(F)c([N+](=O)[O-])c1 | > 10 mg/L | > 10 mg/L | > 10 mg/L | > 10 mg/L | > 10 mg/L | > 10 mg/L | > 10 mg/L | > 10 mg/L
2 | CC1=CC(=O)[C@@](C)(O)C(=O)/C1=C\Nc1ccc(Br)cc1F | > 10 mg/L | > 10 mg/L | > 10 mg/L | > 10 mg/L | 8.83 mg/L (≈ 24.9 µM) | > 10 mg/L | > 10 mg/L | > 10 mg/L
3 | CC1=CC(=O)[C@@](C)(O)C(=O)/C1=C\Nc1ccccc1 | > 10 mg/L | > 10 mg/L | > 10 mg/L | > 10 mg/L | > 10 mg/L | > 10 mg/L | > 10 mg/L | > 10 mg/L
4 | O=C(O)c1cn(C2CC2)c2cc(N3CCNCC3)c(F)cc2c1=O [CIPROFLOXACIN] | 0.26 mg/L (≈ 0.785 µM) | 2.07 mg/L (≈ 6.25 µM) | 0.02 mg/L (≈ 0.0604 µM) | 0.06 mg/L (≈ 0.181 µM) | – | 1.04 mg/L (≈ 3.14 µM) | 0.06 mg/L (≈ 0.181 µM) | 0.26 mg/L (≈ 0.785 µM)

Further lines, results first:

Row | MIC (Mycolicibacterium phlei) | MIC (Acinetobacter baumannii) | MIC (Edwardsiella tarda) | MIC (Proteus sp.) | MIC (Escherichia coli) | MIC (Pseudomonas) | MIC (Bacillus subtilis) | MIC (Bacillus cereus) | SMILES
5 | > 10 mg/L | > 10 mg/L | > 10 mg/L | 2.13 mg/L (≈ 6.24 µM) | 4.26 mg/L (≈ 12.5 µM) | > 10 mg/L | 2.13 mg/L (≈ 6.24 µM) | 2.13 mg/L (≈ 6.24 µM) | CC1=CC(=O)[C@@](C)(O)C(=O)/C1=C\Nc1cccc(OC(F)(F)F)c1
6 | > 10 mg/L | > 10 mg/L | > 10 mg/L | > 10 mg/L | > 10 mg/L | 7.76 mg/L (≈ 24.9 µM) | > 10 mg/L | > 10 mg/L | CC1=CC(=O)[C@@](C)(O)C(=O)/C1=C\Nc1cc(F)c(F)c(F)c1
7 | > 10 mg/L | > 10 mg/L | > 10 mg/L | > 10 mg/L | > 10 mg/L | > 10 mg/L | > 10 mg/L | > 10 mg/L | CC1=CC(=O)[C@@](C)(O)C(=O)/C1=C\Nc1ccc(Br)cc1
8 | > 10 mg/L | > 10 mg/L | > 10 mg/L | 6.78 mg/L (≈ 25 µM) | 6.78 mg/L (≈ 25 µM) | > 10 mg/L | 6.78 mg/L (≈ 25 µM) | 0.85 mg/L (≈ 3.13 µM) | CC1=CC(=O)[C@@](C)(O)C(=O)/C1=C\Nc1ccc(C)cc1
